Experiments:
[1] = test system: Wnt activity (Sp5-Luc reporter, SW480 colon carcinoma cells); assay: Wnt activity screening assay, Sp5-Luc reporter gene in SW480 cells; format: cell-based; details: Homo sapiens; for EC50: overnight incubation; for inhibition at 10 µM: given where EC50 >10 μM, read-out: percent inhibition at 10 μM
Summary of the method: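 Luminescence read-out (BrightGlo) from stable Sp5-Luc SW480 cells, normalized to DMSO-only wells. Cells were treated overnight at 37° C in 1% FBS medium across a 1:3, 10-point series starting at 10 μM. EC50 from variable-slope four-parameter regression; percent inhibition at 10 μM given where EC50 >10 μM.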

[2] = test system: primary human mesenchymal stem cells (hMSCs); assay: Chondrogenesis induction in hMSCs (nodule count); format: cell-based; details: 144 h, hMSC chondrogenesis, 6 days, relative to TGF-β3 (10 ng/mL) positive control, read-out: Max. Activity as % TGF-β3 activity
Protocol: Representative compounds were screened using primary human mesenchymal stem cells (hMSCs) to determine their ability to induce chondrogenesis (process by which cartilage is developed).
Primary human mesenchymal stem cells (hMSCs) were purchased from Lonza (Walkersville, Md.) and expanded in Mesenchymal Stem Cell Growth Media (Lonza). Cells between passage 3 and 6 were used for the experiments.
Each compound was dissolved in DMSO as a 10 mM stock and used to prepare compound source plates. Serial dilution (1:3, 6-point dose-response curves from 2700 nM to 10 nM) and compound transfer was performed using the ECHO 550 (Labcyte, Sunnyvale, Calif.) into 96-well clear bottom assay plates (Greiner Bio-One) with appropriate DMSO backfill for a final DMSO concentration of 0.03%. hMSCs were plated at 20,000 cells/well in 250 μL/well Incomplete Chondrogenic Induction Medium (Lonza; DMEM, dexamethasone, ascorbate, insulin-transferrin-selenium [ITS supplement], gentamycin-amphotericin [GA-1000], sodium pyruvate, proline and L-glutamine). TGF-β3 (10 ng/mL) was used as a positive control for differentiation while negative control wells were treated with 75 nL DMSO for normalization and calculating EC50 values. Cells were incubated at 37° C. and 5% CO2 for 6 days. To image chondrogenic nodules, the cells were fixed using 4% formaldehyde (Electron Microscopy Sciences), and stained with 2 μg/mL Rhodamine B (Sigma-Aldrich) and 20 μM Nile Red (Sigma-Aldrich) [Johnson K., et. al, A Stem Cell-Based Approach to Cartilage Repair, Science, (2012), 336(6082), 717-721]. The nodules imaged (4 images per well at 4× magnification) by excitation at 531 nm and emission at 625 nm and quantified using the CellInsight CX5 (Thermo Scientific). Number of nodules in each well was normalized to the average of 3 DMSO treated wells on the same plate using Excel (Microsoft Inc.). The normalized averages (fold change over DMSO) of 3 replicate wells for each compound concentration were calculated. Due to solubility limitations of some of the compounds, curve fitting was incomplete leading to inaccurate EC50 determinations.
Using TGF-β3 as a positive control, the concentration of representative compounds required to induce 50% levels of chondrogenesis is reported. In addition, the maximum activity of each compound and the respective dose that each compound reached maximum chondrogenesis activity is reported.

Row | EC50 [1] [µM] | Structure (SMILES) | Emax [2] [%] | inhibition at 10 µM [1] [%]
1 | > 10 | c1cncc(-c2cc3c(-c4cc5cccnc5[nH]4)n[nH]c3cn2)c1 [Compound 256, 5-(Pyridin-3-yl)-3-(1H-pyrrolo[2,3-b]pyridin-2-yl)-1H-pyrazolo[3,4-c]pyridine] | 28 | 57.7
2 | > 10 | c1cncc(-c2ccnc3[nH]c(-c4n[nH]c5cnc(-c6cncc(CN7CCCC7)c6)cc45)cc23)c1 [Compound 98, 3-(4-(Pyridin-3-yl)-1H-pyrrolo[2,3-b]pyridin-2-yl)-5-(5-(pyrrolidin-1-ylmethyl)pyridin-3-yl)-1H-pyrazolo[3,4-c]pyridine] | 17 | 25.2
3 | > 10 | CN(C)CCNc1cc(F)cc(-c2ccnc3[nH]c(-c4n[nH]c5cnc(-c6cncnc6)cc45)cc23)c1 [Compound 475, N^1-(3-Fluoro-5-(2-(5-(pyrimidin-5-yl)-1H-pyrazolo[3,4-c]pyridin-3-yl)-1H-pyrrolo[2,3-b]pyridin-4-yl)phenyl)-N^2,N^2-dimethylethane-1,2-diamine] | 17 | 10.9
4 | > 10 | c1cncc(-c2ccnc3[nH]c(-c4n[nH]c5cnc(-c6cncnc6)cc45)cc23)c1 [Compound 111, 3-(4-(Pyridin-3-yl)-1H-pyrrolo[2,3-b]pyridin-2-yl)-5-(pyrimidin-5-yl)-1H-pyrazolo[3,4-c]pyridine] | 50 | 7.8
5 | > 10 | CN1CCN(c2ccnc3[nH]c(-c4n[nH]c5cnc(-c6cncc(N(C)C)c6)cc45)cc23)CC1 [Compound 231, N,N-Dimethyl-5-(3-(4-(4-methylpiperazin-1-yl)-1H-pyrrolo[2,3-b]pyridin-2-yl)-1H-pyrazolo[3,4-c]pyridin-5-yl)pyridin-3-amine] | 14 | 8.2
6 | > 10 | O=C(Cc1ccccc1)Nc1cncc(-c2cc3c(-c4cc5c(-c6ccncc6)ccnc5[nH]4)n[nH]c3cn2)c1 [Compound 122, 2-Phenyl-N-(5-(3-(4-(pyridin-4-yl)-1H-pyrrolo[2,3-b]pyridin-2-yl)-1H-pyrazolo[3,4-c]pyridin-5-yl)pyridin-3-yl)acetamide] |  | 7.9
7 | > 10 | CN(C)CCOc1cncc(-c2cc3c(-c4cc5c(-c6cccnc6)ccnc5[nH]4)n[nH]c3cn2)c1 [Compound 563, N,N-Dimethyl-2-((5-(3-(4-(pyridin-3-yl)-1H-pyrrolo[2,3-b]pyridin-2-yl)-1H-pyrazolo[3,4-c]pyridin-5-yl)pyridin-3-yl)oxy)ethan-1-amine] |  | 28.8
8 | > 10 | c1csc(-c2ccnc3[nH]c(-c4n[nH]c5cnc(-c6cncc(OC7CCCCC7)c6)cc45)cc23)c1 [Compound 703, 5-(5-(Cyclohexyloxy)pyridin-3-yl)-3-(4-(thiophen-2-yl)-1H-pyrrolo[2,3-b]pyridin-2-yl)-1H-pyrazolo[3,4-c]pyridine] |  | 13.6
9 | > 10 | O=C(Nc1cncc(-c2cc3c(-c4cc5cccnc5[nH]4)n[nH]c3cn2)c1)c1ccccc1 [Compound 263, N-(5-(3-(1H-Pyrrolo[2,3-b]pyridin-2-yl)-1H-pyrazolo[3,4-c]pyridin-5-yl)pyridin-3-yl)benzamide] |  | 17

Row | Structure (SMILES) | EC50 [1] [µM] | Emax [2] [%] | inhibition at 10 µM [1] [%]
10 | O=C(Nc1cncc(-c2cc3c(-c4cc5c(-c6cccc(F)c6)ccnc5[nH]4)n[nH]c3cn2)c1)C1CC1 [Compound 20, N-(5-(3-(4-(3-Fluorophenyl)-1H-pyrrolo[2,3-b]pyridin-2-yl)-1H-pyrazolo [3,4-c]pyridin-5-yl)pyridin-3-yl)cyclopropanecarboxamide] | 0.097 | 22 | 
11 | CCNCc1cncc(-c2cc3c(-c4cc5c(-c6cccnc6)ccnc5[nH]4)n[nH]c3cn2)c1 [Compound 90, N-((5-(3-(4-(Pyridin-3-yl)-1H-pyrrolo[2,3-b]pyridin-2-yl)-1H-pyrazolo[3,4-c]pyridin-5-yl)pyridin-3-yl)methyl)ethanamine] | 3.2 | 49 | 

Reference: patent US10285982B2, “3-(1H-pyrrolo[2,3-B]pyridin-2-yl)-1H-pyrazolo[3,4-C]pyridines and therapeutic uses thereof” (Samumed, LLC, priority 2015, dated 2019)
